Several values for one entry are separate records, joined by “and”; a condition that tells them apart may be missing. Identical values can stand only once.
What was measured:
[1] = tested on: prostate cancer cells; test: Invasive potential of prostate cancer cells in vitro (summary); format: cell-based; settings: 5 μg/mL
[2] = tested on: E-10 Cells; test: MTS cytotoxicity assay, E-10; settings: two days
Experimental: A panel of chemically modified tetracycline compounds and doxycycline were tested for cytotoxicity against two carcinomas: COLO 205 (a human colon carcinoma-derived cell line) and the E-10 clone of MDA-MB-231 (a human breast carcinoma-derived cell line). Cytoxicity was measured using a conventional assay for viability with a tetrazolium salt (MTS). Cells were grown in media containing the CMTs at concentrations ranging from 5 μM to 100 μM for two days. The cells were then incubated with the MTS for several hours before removal of the supernatant medium for determination of formazan, which is generated only by the viable cells. Results are expressed as percent cytotoxicity, which is simply the percent decline in measured formazan concentration in the sampled medium.

[3] = tested on: DU-145 tumor cells; test: Alamar Blue viability assay, DU-145; format: cell-based, human
From the text: (§1) Several cancer cell lines and normal cells were examined in vitro to determine whether tetracycline compounds produce cytotoxic (cell killing) effects. A conventional assay for viability of cultured cells based on redox activity in the cells was employed (Pagé et al. 1993). The assay uses a redox dye Alamar Blue, which is a fluorogenic indicator dye that is converted to a fluorescent red product only when cells are carrying out electron transport activity, a widely accepted criterion of viability.
(§2) Cultured cells from three prostate tumor cell lines, LNCAP, DU-145, and PC-3, and normal prostate stromal cells obtained by biopsy of a normal person, were allowed to grow to confluence in multiwell microplates to minimize differences in proliferative activity among the cell types at the time of exposure to the test compound. CMT-3 was added to the wells at concentrations of 10 μM and 20 μM (50 μM also in the case of DU-145). At the start of the experiment, and again at 1, 2, and 3 days, selected wells were incubated with the indicator dye for 3 hr, and the fluorescence was measured on a Cytofluor 2300 fluorescent microplate reader.

[4] = tested on: MMP-9 (gelatinase B) expressed by E-10 cells; test: MMP protein expression by Western blot of conditioned medium, E-10 cells; format: cell-based, human; settings: 24 hr, serum-free medium
Experimental: Two human cancer-derived cell lines were obtained from the American Type Culture Collection (ATCC) in Rockville, Md. The cell lines included COLO 205, a human colon cancer-derived cell line that expresses MMP-2 or gelatinase A, and E-10, a human breast cancer-derived cell line that expresses MMP-9 or gelatinase B.
Cells of each cell line were cultured in 75 cm^2 T-flasks in RPMI-1640 (Gibco) with 10% heat-inactivated fetal bovine serum (FBS) containing 100 units/mL penicillin and 100 μg/mL streptomycin. The cells were fed every two days, and passaged every week. The cells were grown to 80-90% confluence, and then the FBS-containing medium was replaced with a serum-free medium (SFM). CMT-3 (CollaGenex Pharmaceuticals, Inc., Newtown, Pa.) was added in several concentrations to the cells in SFM. Conditioned medium was collected after 24 hr, centrifuged to remove cell debris, and then assayed for MMP protein expression by Western blot using a conventional technique, and scanning the blots with a laser densitometer.

[5] = tested on: Dunning MAT LyLu cells; test: Cytotoxic effect on MAT LyLu cells (trypan blue); format: cell-based, rat; settings: 24 hr or 48 hr exposure
Experimental: Cell viability was estimated by trypan blue staining following exposure to the drugs. The results of these studies are summarized in FIG. 4A (24 hours) and FIG. 4B (48 hr). Data are presented as Mean±SEM from three separate experiments.

[6] = tested on: C8161 cells; test: In vivo metastasis assay, C8161 cells i.v. in SCID mice; settings: for Number of Lung Metastases/Mouse: Average ± SEM, control 231 ± 49
Experimental: Immunosuppressed mice (athymic nude/nude SCID females from Harlan Sprague Dawley) were housed in autoclaved cages with microisolator tops, and all manipulations of the animals were done in a laminar flow hood after wiping down both the hood, gloves and cages with ABQ sterilant. The mice were fed sterile Pico Lab Chow (Purina) and autoclaved St. Louis tap water. […] The compounds and control (sterile water plus 2% carboxymethyl cellulose) were kept stored at −80° C. wrapped in aluminum foil to prevent any light induced changes, and each day's supply was thawed just prior to use. Four compounds were tested for their effects on the metastatic potential of C8161 cells injected intravenously via the tail vein: […] The concentration of the compounds in the vials used to give the 100 mg/kg doses were 2.5 times that in the 40 mg/kg dose so that approximately the same volume was used in both cases, approximately 0.5 mL/animal. The experiments started with nine animals per group at day −4. On day zero, 2×10^5 C8161 cells in cold Hank's Balanced Salt Solution (HBSS) were injected intravenously via tail vein inoculation. The experiment was continued for an additional 24 days, at which time the animals were sacrificed and their lungs removed and fixed in a solution of Bouins/formaldehyde (5 parts:1 part). Tumors were quantitated on the entire surface of the lungs by rotating the lungs and counting the tumors on each lobe using a 6× magnifying glass. Statistical analysis was performed using the statistical package of Microsoft's Excel spreadsheet software.

[7] = tested on: MAT LyLu cells; test: Soluble nucleosome ELISA (programmed cell death), MAT LyLu; format: cell-based, rat
Experimental: An investigation of the cytotoxicity of chemically modified tetracycline compounds for cancer cells was undertaken to determine involvement of programmed cell death (apoptosis) (see Duke et al. 1986). MAT LyLu cells were incubated with various concentration of CMT-3 and doxycycline. Conditioned media were assayed for soluble nucleosomes, resulting from internucleosomal DNA strand breaks, using the Cell Death Detection ELISA Plus kit from Boehringer Mannheim GmbH (Catalog No. 1774425) according to the manufacturer's instructions. In the dosage-dependence trials, cells were incubated with the tetracycline compounds for 48 hr, and then media were collected. In the time trials, the cells were exposed to the tetracycline compounds for specific periods of time from 0 to 48 hr, and if appropriate were maintained in fresh media until 48 hr from the start of the experiment at which time media were collected.

[8] = tested on: LNCAP cells; test: Alamar Blue viability assay, LNCAP; format: cell-based, human
From the text: as §1, §2

SMILES: NC(=O)C1=C(O)CC2CC3Cc4cccc(O)c4C(=O)C3=C(O)C2(O)C1=O (stereo not shown) [CMT-3, 6-demethyl-6-deoxy-4-de(dimethylamino)tetracycline]
- inhibition at 5 µg/mL [1]: 90%
- percent cytotoxicity ([2]; 10 μM): 1.8%
- percent cytotoxicity ([2]; 20 μM): 4.15% and 8.5%
- cytotoxicity ([3]; 20 μM): some cytotoxicity appearing after 72 hr
- cytotoxicity ([3]; 50 μM, over 72 hr): significant cytoxicity
- Percent Inhibition of MMP Protein Expression ([4]; E-10, MMP-9, 10 μM): 45.3%
- Percent Inhibition of MMP Protein Expression ([4]; E-10, MMP-9, 20 μM): 60.8%
- inhibition of cell proliferation (rank among tested drugs) [5]: most effective inhibitors of cell proliferation
- Number of Lung Metastases/Mouse ([6]; 40 mg/kg daily intragastric): 111 ± 105
- effect on number of lung metastases (significance) ([6]; 40 mg/kg daily, p<0.05): significantly reduced the number of lung metastases
- effect on number of lung metastases (significance) ([6]; 100 mg/kg): did not significantly reduce the number of lung metastases
- Number of Lung Metastases/Mouse ([6]; 100 mg/kg daily intragastric): 176 ± 82
- programmed cell death response after brief exposure ([7]; 4 hr at 5 μg/mL or 10 μg/mL): sufficient to elicit a putative programmed cell death response
- soluble nucleosomes / programmed cell death induction ([7]; dosage-dependence, 48 hr): dose-dependent increase in soluble nucleosomes
- cytotoxicity ([8]; 10 μM, 24 hr): nearly complete
- time to complete cytotoxicity ([8]; 20 μM): ≤ 24 h

From US6429204B1, “Method of inhibiting cancer growth” (University of Miami, priority 1997, dated 2002)
